In patent publication US20250109127A1, “METHODS OF USE OF PHENOXYPROPYLAMINE COMPOUNDS TO TREAT DEPRESSION” (Minerva Neurosciences, Inc., priority 2013, published 2025):
Where “and” joins values, the source holds several entries; their conditions need not be identical. Equal values may be shown once.

Test system: dopamine release in the rat prefrontal cortex
Test: Microdialysis: dopamine release in prefrontal cortex after I.P. administration
Format: in vivo
Conditions: for DOPAMINE in dialysate, MEAN / DOPAMINE in dialysate, individual animals: Citalopram 10 mg/kg I.P.
Method: The aim of the study was to evaluate, using microdialysis, the effects of an intraperitoneal (I.P.) administration in rats of three different doses of SON-117 on dopamine and its metabolites, serotonin and its metabolite (5-HIAA), and norepinephrine levels in prefrontal cortex.
Thirty-two adult male Wistar rats were used for the whole study (4 groups of eight animals planned for the study, Table 1).
Surgery was performed on rats weighing about 300 g at the beginning of the experiments. Rats were anaesthetized with Ketamine (50 mg/kg) & Xylazine (15 mg/kg) by intramuscular administration. The animals were placed in a stereotaxic apparatus in the flat-skull position at a constant setting of −3.3 mm between ear bars and the incisor bar. The animals were treated with a local anesthesic (xylocaine 1%, Astra Zeneca) and an analgesic (Temgesic, from Schering Plough, 0.05 mg/kg, s.c.). A rostrocaudal midline incision was made with a lancet to expose the dorsal skull surface. The “stereotaxic zero” was defined by the Bregma in accordance with Paxinos and Watson's atlas (1986). A hole was drilled in the skull with a drill and the meninges were pierced with a sterile needle to implant a CMA12 guide cannula which later received the dialysis probe.
Coordinates used for implanting guide cannula in prefrontal cortex from Bregma were anteroposterior 3.7 mm, mediolateral 0.8 mm, and dorsoventral −2 mm (top of the probe was at −5 mm). The guide cannula was fixed to the skull with two stainless steel screws (1.88 mm outside diameter) anchored. An application of dental cement was added. A plastic collar allowed each animal to be tethered to a Swivel assembly of the CMA 120 awake animal system. Following surgery, rats were kept in individual cages and allowed to recover for a minimum of 3-5 days before the experimentation. The rats were handled and put in plastic bowl for 10 min at least every day to habituate the animals to their new environment for the dialysis. An I.P. administration with saline was also performed every day.
Dialysis probes (CMA12/3 mm, membrane, 20 kD cut-off, Carnegie Medicine, Stockholm, Sweden), were carefully washed before inserting into the guide cannula. The wash was performed with the artificial cerebrospinal fluid (aCSF) medium (NaCl 147 mM, KCl 2.7 mM, CaCl2 1.2 mM, MgCl2 0.85 mM) at room temperature. The dialysis system was then equilibrated at 20° C. at a perfusion rate of 1 μl/min with a Carnegie pump (CMA100). All catheters (FEP tubing, internal volume of 1.2 μl/10 cm, and tubing adaptors) used for microdialysis were treated in the same conditions.
The probes duly prepared were inserted into the guide cannula and the CMA120 Swivel assembly secured to the animal using a plastic collar. Flow through the dialysis probe with aCSF was maintained at a rate of 1 μl/min during the whole experimentation. The first four fractions (corresponding to 2 hours) were discarded to avoid the effects of parenchymal disturbance and to ensure that an approximate steady-state level was reached. Fractions were then collected over a period of 8.5 h during which time the animals remained quiet. The dialysates were automatically collected with an autosampler (microfraction collector CMA 140, Carnegie Medicin) and stored at −80° C. until analysis. […] Perfusion was then maintained for 7 hours with aCSF. The dialysates (30 μl) were collected into 300 μl vials, transferred into dry ice and then kept frozen (−80° C.) until analysis. Frozen samples were shipped to a partner for analysis. At the end of the microdialysis study, a PBS with colored ink was perfused through the probe in order to visualize the dialyzed area.
Catecholamine assay: Concentrations of dopamine, DOPAC, HVA, 5-HIAA, 5-HT, and norepinephrin were determined for each sample by HPLC coupled with electrochemical detection.

CN(C)CCCC1(c2ccc(F)cc2)OCc2cc(C#N)ccc21 (centres unmarked) [Citalopram, citalopram, reference compound]
DOPAMINE in dialysate, MEAN (T0-T30 min): 125.10 % of respective basal
DOPAMINE in dialysate, MEAN (T30-T1 h): 100.99 % of respective basal
DOPAMINE in dialysate, individual animals (T30-T1 h): 140.37 % of respective basal and 66.54 % of respective basal and 36.31 % of respective basal and 85.24 % of respective basal and 123.31 % of respective basal and 48.94 % of respective basal and 154.56 % of respective basal and 96.98 % of respective basal
DOPAMINE in dialysate, MEAN (T1 h 30-T2 h): 186.16 % of respective basal
DOPAMINE in dialysate, individual animals (T1 h 30-T2 h): 866.34 % of respective basal and 87.95 % of respective basal and 112.22 % of respective basal and 92.11 % of respective basal and 107.27 % of respective basal and 89.55 % of respective basal and 53.23 % of respective basal and 51.41 % of respective basal
DOPAMINE in dialysate, MEAN (T1 h-T1 h 30): 170.05 % of respective basal
DOPAMINE in dialysate, individual animals (T1 h-T1 h 30): 573.74 % of respective basal and 97.67 % of respective basal and 64.11 % of respective basal and 123.43 % of respective basal and 30.69 % of respective basal and 110.39 % of respective basal and 169.03 % of respective basal and 176.68 % of respective basal
DOPAMINE in dialysate, MEAN (T2 h 30-T3 h): 108.77 % of respective basal
DOPAMINE in dialysate, individual animals (T2 h 30-T3 h): 225.14 % of respective basal and 50.88 % of respective basal and 108.16 % of respective basal and 122.69 % of respective basal and 62.34 % of respective basal and 107.84 % of respective basal and 55.41 % of respective basal and 165.66 % of respective basal
DOPAMINE in dialysate, MEAN (T2 h-T2 h 30): 255.07 % of respective basal
DOPAMINE in dialysate, individual animals (T2 h-T2 h 30): 1031.09 % of respective basal and 91.06 % of respective basal and 160.05 % of respective basal and 100.78 % of respective basal and 166.56 % of respective basal and 132.77 % of respective basal and 334.66 % of respective basal and 26.69 % of respective basal
DOPAMINE in dialysate, MEAN (T3 h 30-T4 h): 115.67 % of respective basal
DOPAMINE in dialysate, individual animals (T3 h 30-T4 h): 243.96 % of respective basal and 23.86 % of respective basal and 113.64 % of respective basal and 73.20 % of respective basal and 174.87 % of respective basal and 59.22 % of respective basal and 97.27 % of respective basal and 119.98 % of respective basal
DOPAMINE in dialysate, MEAN (T3 h-T3 h 30): 151.97 % of respective basal
DOPAMINE in dialysate, individual animals (T3 h-T3 h 30): 49.37 % of respective basal and 157.89 % of respective basal and 78.55 % of respective basal and 231.36 % of respective basal and 125.19 % of respective basal and 190.71 % of respective basal and 225.63 % of respective basal
DOPAMINE in dialysate, MEAN (T4 h 30-T5 h): 103.71 % of respective basal
DOPAMINE in dialysate, individual animals (T4 h 30-T5 h): 201.72 % of respective basal and 24.62 % of respective basal and 85.39 % of respective basal and 56.71 % of respective basal and 60.52 % of respective basal and 195.94 % of respective basal and 92.15 % of respective basal
DOPAMINE in dialysate, MEAN (T4 h-T4 h 30): 197.23 % of respective basal
DOPAMINE in dialysate, individual animals (T4 h-T4 h 30): 337.02 % of respective basal and 36.95 % of respective basal and 127.24 % of respective basal and 110.17 % of respective basal and 45.45 % of respective basal and 94.94 % of respective basal and 255.00 % of respective basal and 192.48 % of respective basal
DOPAMINE in dialysate, MEAN (T5 h 30-T6 h): 143.61 % of respective basal
DOPAMINE in dialysate, individual animals (T5 h 30-T6 h): 63.71 % of respective basal and 183.35 % of respective basal and 112.87 % of respective basal and 229.69 % of respective basal and 57.13 % of respective basal and 228.31 % of respective basal and 145.07 % of respective basal
DOPAMINE in dialysate, MEAN (T5 h-T5 h 30): 151.58 % of respective basal
DOPAMINE in dialysate, individual animals (T5 h-T5 h 30): 209.25 % of respective basal and 54.45 % of respective basal and 141.19 % of respective basal and 97.47 % of respective basal and 150.97 % of respective basal and 246.92 % of respective basal
DOPAMINE in dialysate, MEAN (T6 h 30-T7 h): 152.65 % of respective basal
DOPAMINE in dialysate, individual animals (T6 h 30-T7 h): 300.59 % of respective basal and 88.72 % of respective basal and 128.46 % of respective basal and 71.16 % of respective basal and 147.69 % of respective basal and 77.59 % of respective basal and 325.54 % of respective basal and 82.54 % of respective basal
DOPAMINE in dialysate, MEAN (T6 h-T6 h 30): 90.10 % of respective basal
DOPAMINE in dialysate, individual animals (T6 h-T6 h 30): 138.93 % of respective basal and 48.75 % of respective basal and 107.97 % of respective basal and 57.49 % of respective basal and 83.90 % of respective basal and 102.96 % of respective basal and 83.47 % of respective basal and 66.13 % of respective basal
DOPAMINE in dialysate, MEAN (T-30 min-T0 (pre-dose)): 107.61 % of respective basal
DOPAMINE in dialysate, MEAN (T-1 h 30-T-1 h (pre-dose)): 77.78 % of respective basal
DOPAMINE in dialysate, individual animals (T-1 h 30-T-1 h (pre-dose)): 71.31 % of respective basal
DOPAMINE in dialysate, MEAN (T-1 h-T-30 min (pre-dose)): 98.79 % of respective basal
dopamine levels, increase (not significant) (citalopram 10 mg/kg I.P., from T1.5 h and 2.5 h): 255%
